Laboratory results from patent publication US7067482B2, “Cross-linked glycopeptide-cephalosporin antibiotics” (Theravance, Inc., priority 2003, dated 2006).
≈ marks a conversion by molar mass, not a printed value.

Experiments:
MRSA 33591 [1] = assay: Time-kill assay; assay type: cell-based, Staphylococcus aureus; conditions: in 24 hours; bactericidal = >=3 log decrease in bacterial cell numbers
Method: This time-kill assay is a method for measuring the rate of bactericidal activity of a test compound. These procedures are similar to those described in V. Lorian, “Antibiotics in Laboratory Medicine”, Fourth Edition, Williams and Wilkins (1996), pages 104–105. A rapid time-kill is desirable to quickly prevent bacterial colonization and reduce host tissue damage.
Bacterial inocula were prepared as described in Example 6 for determination of MIC. Bacteria were diluted in prewarmed media in shake flasks and incubated with shaking (200 rpm, 35° C.). At 0, 1, 4, and 24 hours samples were withdrawn from the flasks and bacteria were enumerated by plate counting. Subsequent to the initial sampling, a test compound to be assayed was added to the shake flask culture. Plate counts at these intervals previous to and following addition of the compound were expressed graphically in a time-kill curve. Bactericidal activity is defined as a greater than or equal to 3 log decrease (reduction greater than or equal to 99.9%) in bacterial cell numbers by 24 hours.
By comparison, vancomycin was bactericidal against MRSA 33591 at a concentration of 4 μg/mL in 24 hours.

MSSA 13709 = assay: Minimal inhibitory concentration (MIC), broth microdilution, MSSA 13709; conditions: Staphylococcus aureus, read-out: MIC MSSA 13709
[2] = system: methicillin-susceptible Staphylococcus aureus (MSSA 13709) and methicillin-resistant Staphylococcus aureus (MRSA 33591); assay: In vivo efficacy studies in neutropenic mice (thigh infection); conditions: iv, 24 h, read-out: ED50 (dose required to produce 50% of the maximum reduction in thigh titre)
MRSA 33591 [3] = assay: Minimal inhibitory concentration (MIC), broth microdilution, MRSA 33591; conditions: Staphylococcus aureus, read-out: MIC MRSA 33591

In the case of `CN[C@H](CC(C)C)C(=O)N[C@H]1C(=O)N[C@@H](CC(N)=O)C(=O)N[C@H]2C(=O)N[C@H]3C(=O)N[C@H](C(=O)N[C@H](C(=O)O)c4cc(O)cc(O)c4-c4cc3ccc4O)[C@H](O)c3ccc(c(Cl)c3)Oc3cc2cc(c3O[C@@H]2O[C@H](CO)[C@@H](O)[C@H](O)[C@H]2O[C@H]2C[C@](C)(N)[C@H](O)[C@H](C)O2)Oc2ccc(cc2Cl)[C@H]1O` [Vancomycin, vancomycin], the “concentration at which bactericidal” value (MRSA 33591 [1]) is reported as 4 µg/mL, the MIC (MSSA 13709) is reported as 1 µg/mL (≈ 0.69 µM) and the ED50 [2] is reported as 9 mg/kg. For the same compound, the MIC (MRSA 33591 [3]) was 2 µg/mL (≈ 1.38 µM).
